Reference: US11109590B2 (priority 2017, dated 2021)
Where two headings read alike, the source gives them in different places.

Tests used:
[1] = system: Legionella pneumophilia (ATCC 33152); type: cell-based; conditions: pH 8.0, 0.005% yeast extract
[2] = system: P. aeruginosa (PA01) in biofilm; test: Antimicrobial efficacy in relation to bacteria in biofilm (24 hours old); type: cell-based; conditions: for Log10 reduction factor: biofilm, starting number > 8 log10 cfu/cm^2

| Molecule | Log10 reduction factor ([1]; aqueous 1% solution, 15 min exposure) | Log10 reduction factor ([1]; aqueous 1% solution, 30 min exposure) | Log10 reduction factor ([1]; aqueous 1% solution, 60 min exposure) | Log10 reduction factor ([1]; aqueous 1% solution, 120 min exposure) | Log10 reduction factor ([2]; 1.7% solution, 5 min exposure) | Log10 reduction factor ([2]; 1.7% solution, 15 min exposure) | Log10 reduction factor ([2]; 1.7% solution, 30 min exposure) | Log10 reduction factor ([2]; 1.7% solution, 60 min exposure) | antimicrobial efficacy in biofilms (in words) ([2]; 1.7%, compared to 17% H2O2 and 100% PAM) | antimicrobial efficacy in relation to biofilms (in words) ([2]; 17%) | Log10 reduction factor ([2]; 17% aqueous solution, 5 min exposure) | Log10 reduction factor ([2]; 17% aqueous solution, 15 min exposure) | Log10 reduction factor ([2]; 17% aqueous solution, 30 min exposure) | Log10 reduction factor ([2]; 17% aqueous solution, 60 min exposure) | antimicrobial effect in relation to the test organisms in biofilms 24 hours old (in words) ([2]; 17% solution, after just 5 minutes of exposure time) | Log10 reduction factor ([1]; 7.50% aqueous solution, 15 min exposure) | Log10 reduction factor ([1]; 7.50% aqueous solution, 30 min exposure) | Log10 reduction factor ([1]; 7.50% aqueous solution, 60 min exposure) | Log10 reduction factor ([1]; 7.50% aqueous solution, 120 min exposure) |
| --- | --- | --- | --- | --- | --- | --- | --- | --- | --- | --- | --- | --- | --- | --- | --- | --- | --- | --- | --- |
| polyoxyethylene (20) sorbitan monooleate [PSb 80] | 0.06 Log10 | 0.09 Log10 | 0.09 Log10 | 0.11 Log10 | – | – | – | – | – | – | – | – | – | – | – | – | – | – | – |
| OO [H2O2, hydrogen peroxide] | – | – | – | – | 0.84 Log10 | 1.62 Log10 | 1.95 Log10 | 2.53 Log10 | significant loss of antimicrobial efficacy | high and substantially equivalent | >8.00 Log10 | >8.00 Log10 | >8.00 Log10 | >8.00 Log10 | high antimicrobial effect | 2.24 Log10 | 3.44 Log10 | 4.25 Log10 | 4.83 Log10 |
